In patent US9884091B2, “Treatment of neurological diseases” (Lancaster University Business Enterprises Limited, priority 2014, dated 2018):

Experiments:
[1] = tested on: APP/PS1 mouse model of AD; details: 12 months old APP/PS1 mice; cited from earlier work
C57BL/6 mice given MPTP [2] = assay: Open-field motor activity task, MPTP Parkinson mouse model; type: in vivo; details: FIG. 4; 25 nmol/kg i.p. once daily
Excerpt: (§1) A standard model to induce Parkinson like symptoms in mice is the injection of the chemical (MPTP) (Li et al., 2009). This chemical impairs or kills neurons in the brain that produce dopamine. The mice develop motor impairments, and the dopaminergic neurons in the brain are reduced in numbers and function. The enzyme tyrosine hydroxylase (TH) is required to synthetise dopamine. A loss of TH signifies a loss of dopamine production (Harkavyi et al., 2008).
(§2) Adult male C57BL/6 mice were given the dopaminergic toxin MPTP (20 mg/kg in 0.1 mL of PBS i.p. at 2-h intervals of 4 doses MPTP; Sigma) or vehicle (PBS). This treatment selectively affects dopaminergic neurons and induces Parkinson-like symptoms in mice.
(§3) The dose of peptide tested was 25 nmol/kg body weight. The peptides were administered by a once-daily intraperitoneal injection for 8 weeks. Saline injections were administered as a control. Five animals per group were injected with a peptide or a saline control.
Open-Field Motor Activity Task
Mice (6 per group) received a session of 5 min in the empty open-field (58 cm in diameter; 35 cm high walls) with painted grey walls and grey floor. […] Motor activity was recorded by total path length and travel speed. Data were analysed using two-way ANOVA with post-hoc tests.

APP/PS1 transgenic mice [3] = assay: Synaptic densities (synaptophysin immunohistochemistry) in cortex, transgenic Alzheimer's disease mouse model; type: in vivo; details: FIG. 2; 25 nmol/kg i.p. once daily for 8 weeks
Excerpt: (§4) Transgenic Alzheimer's Disease Mouse Model
(§5) Animal models have been developed to test novel drugs. A standard model for Alzheimer's disease is transgenic mice that express human mutated genes for amyloid production that are known to induce Alzheimer's disease in humans. These APP/PS1 transgenic mice recapitulate some of the symptoms of Alzheimer's disease such as the aggregation of amyloid in the brain, memory loss and the loss of synapses (Radde et al., 2006).
(§6) The APP/PS1 mice express human Swedish mutated APP and human mutated presenilin-1 which induce Alzheimer's Disease in humans.
as §3
(§7) Brain Tissue Analysis for Amyloid Plaques and Synapse Numbers in AD Mice
(§8) Animals (5 per group) were perfused transcardially with 30 ml of ice-cold PBS and 30 ml of ice-cold 4% paraformaldehyde to postfix the brain. The brains were removed and placed in fresh 30% sucrose solution in PBS to cryoprotect tissue and cut at a thickness of 40 μm on a cryostat. Sections were chosen according to stereological rules, with the first section taken at random and every 5th section afterwards. Between 7 and 13 sections were analysed per brain. […]

C57BL/6 mice given MPTP [4] = assay: Rotarod motor control test, MPTP Parkinson mouse model; type: in vivo; details: FIG. 3; 25 nmol/kg i.p. once daily
Excerpt: as §1, §2, §3
Rotarod Motor Control Test
The rotarod consists of a rotating pole that accelerates over time. Mice are placed on the rod, and motor skills are tested by accelerating the rotation. As the rotation increases, animals lose grip and fall on a cushion located below the rod. […] Each animal's endurance time was recorded, and the average was calculated. Data were analysed using a one-way ANOVA with post-hoc Bonferroni tests.

APP/PS1 transgenic mice [5] = assay: Beta-amyloid plaque load in cortex by immunohistochemistry, transgenic Alzheimer's disease mouse model; type: in vivo; details: FIG. 1; 25 nmol/kg i.p. once daily for 8 weeks
Excerpt: as §4, §5, §6, §3, §7, §8

| Substance | amyloid plaque load [1] | synaptic plasticity in area CA1 of the hippocampus and spatial memory formation [1] | impairment of motor activity induced by MPTP (C57BL/6 mice given MPTP [2]) | synapse loss in the cortex (synaptic densities) (APP/PS1 transgenic mice [3]) | impairment of motor skills induced by MPTP (rotarod endurance time) (C57BL/6 mice given MPTP [4]) | beta-amyloid plaque load in the cortex (% area positive for beta amyloid) (APP/PS1 transgenic mice [5]) | beta-amyloid plaque load, compared with single GIP or GLP-1 analogues (APP/PS1 transgenic mice [5]) |
| --- | --- | --- | --- | --- | --- | --- | --- |
| D-Ala^2-GIP | much reduced | unimpaired | – | – | – | – | – |
| YXEGTFTSDYSIYLDKQAAXEFV[Cys-40 kDAPEG]WLLAGGPSSGAPPPS[Lys-γE-C16]-NH2 (YXEGTFTSDYSIYLDKQAAXEFVXWLLAGGPSSGAPPPSX; 40 kDa PEG on Cys24; Lys γGlu-C16; C-amide; GIP/GLP1 co-agonist peptide; VARIANT 2, 20 Xaa = amino-isobutyric acid; VARIANT 24 Xaa = Cys with a covalently linked PEG molecule having an average molecular weight of 40kDa; VARIANT 40 Xaa = lysine residue connected to gamma- glutamate and C16, wherein C16 is a saturated fatty acid or palmitate) [DA2, pegylated version of DA1, position 24 modified to cysteine, γ-Glu spacer linking the C16 fatty acid] | – | – | protect mice from an impairment of motor activity | protected from synapse loss | protect mice from an impairment of motor skills | reduces beta-amyloid plaque load | superior to the single GIP or GLP-1 analogues |
